Data published in patent US20170190671A1, “BIS(ARYL)CATECHOL DERIVATIVES AS HERBICIDES” (E I DU PONT DE NEMOURS AND COMPANY, priority 2014, published 2017).

Assays:
Assay in all cases: Test C postemergence
Format in all cases: in vivo
Conditions in all cases: scale 0 to 100
soybean (Glycine max) = tested on: soybean (Glycine max)
Description: (§1) Seeds of plant species selected from blackgrass (Alopecurus myosuroides), Italian ryegrass (Lolium multiflorum), winter wheat (Triticum aestivum), galium (catchweed bedstraw, Galium aparine), corn (Zea mays), large (Lg) crabgrass (Digitaria sanguinalis), giant foxtail (Setaria faberii), johnsongrass (Sorghum halepense), lambsquarters (Chenopodium album), morningglory (Ipomoea coccinea), yellow nutsedge (Cyperus esculentus), pigweed (Amaranthus retroflexus), ragweed (common ragweed, Ambrosia elatior), soybean (Glycine max), barnyardgrass (Echinochloa crus-galli), oilseed rape (Brassica napus), waterhemp (common waterhemp, Amaranthus rudis), and velvetleaf (Abutilon theophrasti) were planted into a blend of loam soil and sand and treated preemergence with test chemicals formulated in a non-phytotoxic solvent mixture which included a surfactant.
(§2) At the same time, plants selected from these crop and weed species and also chickweed (common chickweed, Stellaria media), kochia (Kochia scoparia), and wild oat (Avena fatua), were planted in pots containing Redi-Earth® planting medium (Scotts Company, 14111 Scottslawn Road, Marysville, Ohio 43041) comprising spaghnum peat moss, vermiculite, wetting agent and starter nutrients and treated with postemergence applications of test chemicals formulated in the same manner. Plants ranged in height from 2 to 18 cm (1- to 4-leaf stage) for postemergence treatments. Treated plants and controls were maintained in a greenhouse for 13 to 15 days, after which time all species were compared to controls and visually evaluated. Plant response ratings, summarized in Table C, are based on a scale of 0 to 100 where 0 is no effect and 100 is complete control. A dash (-) response means no test result.

[1] = tested on: ragweed (common ragweed, Ambrosia elatior)
Description: as §1, §2

[2] = tested on: galium (catchweed bedstraw, Galium aparine)
Description: as §1, §2

corn (Zea mays) = tested on: corn (Zea mays)
Description: as §1, §2

[3] = tested on: lambsquarters (Chenopodium album)
Description: as §1, §2

[4] = tested on: waterhemp (common waterhemp, Amaranthus rudis)
Description: as §1, §2

**Q.** `Fc1ccc(F)c(Oc2ncc(C(F)(F)F)cn2)c1Oc1ncc(Cl)cn1` [Compound 25] was tested. Which “Plant response rating, Soybean” value (soybean (Glycine max); 8 g ai/ha, postemergence) did it give?
**A.** 30

**Q.** And the “Plant response rating, Soybean” value (soybean (Glycine max); Postemergence, 31 g ai/ha)?
**A.** 50

**Q.** And the “Plant response rating, Soybean” value (soybean (Glycine max); Postemergence, 62 g ai/ha)?
**A.** 45

**Q.** And the “Plant response rating, Ragweed” value ([1]; 8 g ai/ha, postemergence)?
**A.** 0

**Q.** What about the “Plant response rating, Ragweed” value ([1]; Postemergence, 31 g ai/ha) of the same compound?
**A.** 10

**Q.** And the “Plant response rating, Ragweed” value ([1]; Postemergence, 62 g ai/ha)?
**A.** 25

**Q.** What about the “Plant response rating, Galium” value ([2]; 8 g ai/ha, postemergence) of the same compound?
**A.** 50

**Q.** What about the “Plant response rating, Galium” value ([2]; Postemergence, 16 g ai/ha) of the same compound?
**A.** 55

**Q.** What about the “Plant response rating, Galium” value ([2]; Postemergence, 31 g ai/ha) of the same compound?
**A.** 80

**Q.** And the “Plant response rating, Galium” value ([2]; Postemergence, 62 g ai/ha)?
**A.** 80

**Q.** What about the “Plant response rating, Corn” value (corn (Zea mays); 8 g ai/ha, postemergence) of the same compound?
**A.** 5

**Q.** And the “Plant response rating, Corn” value (corn (Zea mays); Postemergence, 16 g ai/ha)?
**A.** 5

**Q.** What about the “Plant response rating, Corn” value (corn (Zea mays); Postemergence, 31 g ai/ha) of the same compound?
**A.** 5

**Q.** And the “Plant response rating, Corn” value (corn (Zea mays); Postemergence, 62 g ai/ha)?
**A.** 5

**Q.** And the “Plant response rating, Lambsquarters” value ([3]; 8 g ai/ha, postemergence)?
**A.** 60

**Q.** What about the “Plant response rating, Lambsquarters” value ([3]; Postemergence, 16 g ai/ha) of the same compound?
**A.** 80

**Q.** And the “Plant response rating, Lambsquarters” value ([3]; Postemergence, 31 g ai/ha)?
**A.** 80

**Q.** What about the “Plant response rating, Lambsquarters” value ([3]; Postemergence, 62 g ai/ha) of the same compound?
**A.** 75

**Q.** What about the “Plant response rating, Waterhemp” value ([4]; 8 g ai/ha, postemergence) of the same compound?
**A.** 90

**Q.** And the “Plant response rating, Waterhemp” value ([4]; Postemergence, 31 g ai/ha)?
**A.** 50

**Q.** What about the “Plant response rating, Waterhemp” value ([4]; Postemergence, 62 g ai/ha) of the same compound?
**A.** 75
